Measured values reported in ChEMBL document CHEMBL1152560, “Substituted 2-arylbenzothiazoles as kinase inhibitors: hit-to-lead optimization” (Bioorg Med Chem, 2009).

Columns and labels:
[1] = biological target: Dual specificity tyrosine-phosphorylation-regulated kinase 1B (Homo sapiens) (UniProt Q9Y463); experiment: Residual activity of DYRK1B at 1 uM by microplate scintillation counting
[2] = biological target: Receptor tyrosine-protein kinase erbB-2 (Homo sapiens, UniProt P04626); experiment: Residual activity of ERBB2 at 1 uM by microplate scintillation counting
[3] = biological target: Serine/threonine-protein kinase PAK 1 (Homo sapiens) (UniProt Q13153); experiment: Residual activity of PAK1 at 1 uM by microplate scintillation counting
[4] = biological target: T1, Myotonin-protein kinase (Homo sapiens) (UniProt Q09013); experiment: Residual activity of DMPK at 10 uM by microplate scintillation counting
T1 sequence (whole entry): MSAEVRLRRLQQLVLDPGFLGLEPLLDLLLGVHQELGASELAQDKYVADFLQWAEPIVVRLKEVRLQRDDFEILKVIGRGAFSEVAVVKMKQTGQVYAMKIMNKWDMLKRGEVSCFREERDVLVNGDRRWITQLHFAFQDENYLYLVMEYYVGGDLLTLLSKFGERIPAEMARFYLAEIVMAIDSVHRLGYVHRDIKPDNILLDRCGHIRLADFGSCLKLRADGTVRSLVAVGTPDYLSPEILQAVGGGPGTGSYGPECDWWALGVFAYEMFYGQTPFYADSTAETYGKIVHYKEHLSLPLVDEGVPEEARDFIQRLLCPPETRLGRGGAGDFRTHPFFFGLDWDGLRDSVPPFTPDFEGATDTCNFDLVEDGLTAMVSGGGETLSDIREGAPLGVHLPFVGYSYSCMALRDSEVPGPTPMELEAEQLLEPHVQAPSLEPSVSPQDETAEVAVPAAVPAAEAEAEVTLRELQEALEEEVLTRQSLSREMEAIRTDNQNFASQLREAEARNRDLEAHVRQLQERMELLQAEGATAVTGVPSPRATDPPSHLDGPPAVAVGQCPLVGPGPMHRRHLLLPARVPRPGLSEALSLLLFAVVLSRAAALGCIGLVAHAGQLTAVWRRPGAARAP

[5] = biological target: Cyclin-dependent kinase 2/cyclin E1 (Homo sapiens) (UniProt P24864+P24941); experiment: Residual activity of CDK2/Cyclin E at 10 uM by microplate scintillation counting; format: protein-complex assay
[6] = biological target: Serine/threonine-protein kinase PAK 4 (Homo sapiens) (UniProt O96013); experiment: Residual activity of PAK4 at 10 uM by microplate scintillation counting
[7] = biological target: Cyclin-dependent kinase 1/cyclin B1 (Homo sapiens) (UniProt P06493+P14635); experiment: Residual activity of CDK1/CyclinB1 at 1 uM by microplate scintillation counting; format: protein-complex assay
[8] = biological target: Serine/threonine-protein kinase Nek6 (Homo sapiens) (UniProt Q9HC98); experiment: Residual activity of NEK6 at 0.1 uM by microplate scintillation counting
[9] = biological target: Platelet-derived growth factor receptor beta (Homo sapiens, UniProt P09619); experiment: Residual activity of PDGFRbeta at 0.1 uM by microplate scintillation counting
[10] = test system: RAF proto-oncogene serine/threonine-protein kinase (Homo sapiens), P04049 [Y340D,Y341D]; experiment: Residual activity of RAF1 Y340D/Y341D mutant at 10 uM by microplate scintillation counting
[11] = biological target: T2, Dual specificity protein kinase TTK (Homo sapiens) (UniProt P33981); experiment: Residual activity of TTK at 10 uM by microplate scintillation counting
T2 sequence (whole entry): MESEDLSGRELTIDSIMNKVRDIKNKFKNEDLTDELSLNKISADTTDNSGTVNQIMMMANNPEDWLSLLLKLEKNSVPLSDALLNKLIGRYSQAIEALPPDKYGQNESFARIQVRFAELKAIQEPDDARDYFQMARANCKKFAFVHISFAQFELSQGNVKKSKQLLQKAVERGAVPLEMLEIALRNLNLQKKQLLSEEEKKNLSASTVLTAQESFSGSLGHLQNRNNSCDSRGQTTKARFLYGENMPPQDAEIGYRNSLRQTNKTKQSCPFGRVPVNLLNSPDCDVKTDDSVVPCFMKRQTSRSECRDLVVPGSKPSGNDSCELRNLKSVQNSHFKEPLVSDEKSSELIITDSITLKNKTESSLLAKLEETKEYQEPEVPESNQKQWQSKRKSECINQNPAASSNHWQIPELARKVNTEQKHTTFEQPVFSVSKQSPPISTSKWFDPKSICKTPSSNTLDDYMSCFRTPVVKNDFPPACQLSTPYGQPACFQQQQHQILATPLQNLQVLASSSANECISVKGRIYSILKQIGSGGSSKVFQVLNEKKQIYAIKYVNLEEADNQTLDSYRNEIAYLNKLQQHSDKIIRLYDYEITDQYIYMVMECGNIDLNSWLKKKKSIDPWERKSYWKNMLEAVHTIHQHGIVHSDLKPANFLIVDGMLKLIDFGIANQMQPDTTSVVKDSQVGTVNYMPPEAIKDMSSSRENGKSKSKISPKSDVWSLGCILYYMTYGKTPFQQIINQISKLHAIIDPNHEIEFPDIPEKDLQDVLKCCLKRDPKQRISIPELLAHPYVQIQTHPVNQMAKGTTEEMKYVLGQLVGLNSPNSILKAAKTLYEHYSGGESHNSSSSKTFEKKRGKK

Sequence of Serine/threonine-protein kinase PAK 4 (Homo sapiens) (O96013 whole entry, looked up): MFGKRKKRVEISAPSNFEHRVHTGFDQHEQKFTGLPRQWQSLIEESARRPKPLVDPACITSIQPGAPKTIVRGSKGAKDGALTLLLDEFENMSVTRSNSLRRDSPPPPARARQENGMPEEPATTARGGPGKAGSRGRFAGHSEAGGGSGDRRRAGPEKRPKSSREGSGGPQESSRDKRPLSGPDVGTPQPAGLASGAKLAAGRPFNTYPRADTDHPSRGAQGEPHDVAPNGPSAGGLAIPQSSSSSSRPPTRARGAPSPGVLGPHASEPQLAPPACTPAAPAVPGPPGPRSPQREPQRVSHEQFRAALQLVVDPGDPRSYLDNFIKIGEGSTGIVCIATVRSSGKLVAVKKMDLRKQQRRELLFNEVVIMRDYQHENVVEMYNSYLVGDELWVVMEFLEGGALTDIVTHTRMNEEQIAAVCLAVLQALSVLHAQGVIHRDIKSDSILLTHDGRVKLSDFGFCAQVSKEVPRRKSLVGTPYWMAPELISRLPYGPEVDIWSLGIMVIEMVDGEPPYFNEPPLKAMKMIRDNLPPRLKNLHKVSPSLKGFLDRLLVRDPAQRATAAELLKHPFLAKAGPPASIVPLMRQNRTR
Sequence of Serine/threonine-protein kinase PAK 1 (Homo sapiens) (Q13153 whole entry): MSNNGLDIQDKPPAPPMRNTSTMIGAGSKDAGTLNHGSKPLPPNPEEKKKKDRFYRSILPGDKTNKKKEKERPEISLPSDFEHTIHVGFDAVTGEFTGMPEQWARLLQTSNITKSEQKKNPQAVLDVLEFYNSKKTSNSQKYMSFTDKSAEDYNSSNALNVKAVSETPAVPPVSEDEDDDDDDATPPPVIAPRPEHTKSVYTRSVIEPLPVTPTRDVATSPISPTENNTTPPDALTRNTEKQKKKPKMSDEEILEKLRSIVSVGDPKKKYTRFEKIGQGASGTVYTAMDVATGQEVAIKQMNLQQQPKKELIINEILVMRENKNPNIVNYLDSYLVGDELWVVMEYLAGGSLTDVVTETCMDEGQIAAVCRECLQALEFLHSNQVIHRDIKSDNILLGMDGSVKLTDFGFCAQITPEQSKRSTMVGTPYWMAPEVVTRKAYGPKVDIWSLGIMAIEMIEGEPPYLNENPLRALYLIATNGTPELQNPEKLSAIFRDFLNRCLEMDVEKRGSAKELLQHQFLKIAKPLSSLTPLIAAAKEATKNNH
Sequence of Serine/threonine-protein kinase Nek6 (Homo sapiens) (Q9HC98 whole entry): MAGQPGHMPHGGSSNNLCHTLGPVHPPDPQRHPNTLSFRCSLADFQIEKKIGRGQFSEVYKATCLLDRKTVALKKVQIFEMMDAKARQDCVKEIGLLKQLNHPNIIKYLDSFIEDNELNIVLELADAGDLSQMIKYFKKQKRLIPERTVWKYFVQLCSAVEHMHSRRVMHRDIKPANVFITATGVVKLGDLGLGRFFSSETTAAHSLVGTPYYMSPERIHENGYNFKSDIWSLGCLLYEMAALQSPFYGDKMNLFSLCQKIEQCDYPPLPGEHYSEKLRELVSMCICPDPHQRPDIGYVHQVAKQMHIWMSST
Sequence of Cyclin-dependent kinase 1/cyclin B1 (Homo sapiens) (P06493 whole entry, looked up): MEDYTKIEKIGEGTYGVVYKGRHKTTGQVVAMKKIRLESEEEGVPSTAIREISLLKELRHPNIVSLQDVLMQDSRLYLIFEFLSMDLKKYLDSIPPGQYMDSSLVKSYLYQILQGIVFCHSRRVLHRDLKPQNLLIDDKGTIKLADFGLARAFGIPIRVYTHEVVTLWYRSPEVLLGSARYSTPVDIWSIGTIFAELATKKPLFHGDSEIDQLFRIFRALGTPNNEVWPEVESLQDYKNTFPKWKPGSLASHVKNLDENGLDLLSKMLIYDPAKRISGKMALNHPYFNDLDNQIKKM
Sequence of Cyclin-dependent kinase 1/cyclin B1 (Homo sapiens) (P14635 whole entry, looked up): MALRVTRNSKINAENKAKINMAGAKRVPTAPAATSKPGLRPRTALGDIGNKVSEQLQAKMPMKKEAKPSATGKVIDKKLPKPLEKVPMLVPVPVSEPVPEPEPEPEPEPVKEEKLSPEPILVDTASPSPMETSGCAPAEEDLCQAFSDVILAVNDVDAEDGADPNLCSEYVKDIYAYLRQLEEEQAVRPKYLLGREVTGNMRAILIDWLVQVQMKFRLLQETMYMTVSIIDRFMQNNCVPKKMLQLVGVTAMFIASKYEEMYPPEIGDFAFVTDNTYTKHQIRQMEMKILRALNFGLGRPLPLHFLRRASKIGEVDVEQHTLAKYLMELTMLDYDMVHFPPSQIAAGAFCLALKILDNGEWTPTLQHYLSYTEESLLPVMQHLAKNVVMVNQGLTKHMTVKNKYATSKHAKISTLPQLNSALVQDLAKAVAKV
Sequence of Dual specificity tyrosine-phosphorylation-regulated kinase 1B (Homo sapiens) (Q9Y463 whole entry, looked up): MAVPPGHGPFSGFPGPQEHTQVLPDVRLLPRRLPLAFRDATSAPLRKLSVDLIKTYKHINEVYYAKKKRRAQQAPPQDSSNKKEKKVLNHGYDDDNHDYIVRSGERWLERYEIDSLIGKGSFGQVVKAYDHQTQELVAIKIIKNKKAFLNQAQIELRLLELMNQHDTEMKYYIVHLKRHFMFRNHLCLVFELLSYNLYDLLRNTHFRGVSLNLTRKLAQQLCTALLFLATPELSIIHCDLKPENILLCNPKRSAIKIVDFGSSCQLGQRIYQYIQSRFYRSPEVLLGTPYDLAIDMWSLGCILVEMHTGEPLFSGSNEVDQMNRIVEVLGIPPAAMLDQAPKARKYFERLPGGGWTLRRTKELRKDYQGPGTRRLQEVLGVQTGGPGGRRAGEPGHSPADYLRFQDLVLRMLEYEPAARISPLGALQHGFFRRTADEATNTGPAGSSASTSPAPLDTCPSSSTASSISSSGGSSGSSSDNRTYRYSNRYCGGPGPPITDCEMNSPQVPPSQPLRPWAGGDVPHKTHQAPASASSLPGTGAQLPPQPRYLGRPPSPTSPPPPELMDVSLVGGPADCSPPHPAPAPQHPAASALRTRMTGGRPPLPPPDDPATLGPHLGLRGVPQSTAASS
Sequence of Platelet-derived growth factor receptor beta (P09619 whole entry): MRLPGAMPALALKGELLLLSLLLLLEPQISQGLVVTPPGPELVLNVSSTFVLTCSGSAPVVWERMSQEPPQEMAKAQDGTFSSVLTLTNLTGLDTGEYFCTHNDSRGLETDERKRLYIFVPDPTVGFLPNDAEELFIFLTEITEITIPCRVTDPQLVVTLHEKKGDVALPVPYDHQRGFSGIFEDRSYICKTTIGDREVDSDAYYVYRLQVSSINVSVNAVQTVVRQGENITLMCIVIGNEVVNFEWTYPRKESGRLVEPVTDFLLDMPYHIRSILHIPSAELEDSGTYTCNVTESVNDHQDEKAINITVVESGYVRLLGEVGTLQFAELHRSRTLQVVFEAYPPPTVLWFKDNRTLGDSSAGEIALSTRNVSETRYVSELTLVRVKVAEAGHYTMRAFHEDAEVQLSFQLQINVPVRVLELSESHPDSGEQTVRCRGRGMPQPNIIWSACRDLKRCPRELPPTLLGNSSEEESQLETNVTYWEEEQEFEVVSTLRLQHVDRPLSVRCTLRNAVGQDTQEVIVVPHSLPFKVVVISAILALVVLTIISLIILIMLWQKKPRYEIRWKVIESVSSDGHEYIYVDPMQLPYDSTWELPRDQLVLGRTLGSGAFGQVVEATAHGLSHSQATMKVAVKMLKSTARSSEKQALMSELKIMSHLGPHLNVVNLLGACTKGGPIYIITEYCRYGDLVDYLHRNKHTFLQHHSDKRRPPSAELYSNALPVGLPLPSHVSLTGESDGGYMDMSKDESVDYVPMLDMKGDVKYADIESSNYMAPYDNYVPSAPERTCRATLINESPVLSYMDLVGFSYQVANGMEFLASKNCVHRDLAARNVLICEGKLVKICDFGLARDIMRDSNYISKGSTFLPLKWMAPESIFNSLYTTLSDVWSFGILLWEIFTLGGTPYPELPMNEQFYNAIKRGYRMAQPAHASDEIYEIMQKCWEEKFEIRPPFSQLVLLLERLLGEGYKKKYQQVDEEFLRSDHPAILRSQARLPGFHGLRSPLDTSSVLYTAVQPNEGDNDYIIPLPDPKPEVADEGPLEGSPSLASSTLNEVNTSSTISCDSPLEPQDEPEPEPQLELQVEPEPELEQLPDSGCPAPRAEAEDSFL

With COc1cc2c(Oc3ccc(-c4nc5ccccc5s4)cc3)ncnc2cc1OCCCN1CCN(C)CC1 the residual activity [1] was 105%, the residual activity [2] was 98% and the residual activity [3] was 104%. The residual activity [4] was 88%, the residual activity [5] was 186% and the residual activity [6] was 55%. The residual activity [7] was 89%, the residual activity [8] was 93% and the residual activity [9] was 94%. The residual activity [10] was 74% and the residual activity [11] was 69%.

In the case of COc1cc2c(Oc3ccc(-c4nc5ccccc5s4)cc3F)ncnc2cc1OCCCN1CCN(C)CC1, the residual activity [1] is reported as 95%, the residual activity [2] is reported as 99% and the residual activity [3] is reported as 91%. It also gave a residual activity [4] of 166%, a residual activity [5] of 194% and a residual activity [6] of 50%. The residual activity [7] was 99%, the residual activity [8] was 98% and the residual activity [9] was 95%. The residual activity [10] was 108% and the residual activity [11] was 70%.

Work on COc1cc2c(Oc3ccc(-c4nc5ccccc5s4)cc3)ncnc2cc1OCCCN1CCCC1 yielded a residual activity [1] of 98%, a residual activity [2] of 128% and a residual activity [3] of 101%. The residual activity [4] was 118%, the residual activity [5] was 116% and the residual activity [6] was 91%. The residual activity [7] was 81%, the residual activity [8] was 93% and the residual activity [9] was 95%. The residual activity [10] was 61% and the residual activity [11] was 84%.
